Converted amounts (≈) assume the structure as drawn.
How the values were obtained:
CYP2C9 = CYP2C9 (Homo sapiens, UniProt P11712); test: Inhibition of human recombinant CYP2C9 at 10 uM by fluorescence analysis relative to control; assay type: ADME
[1] = AUC (0 to infinity) in BALB/c mouse plasma at 1 mg/kg, iv up to 24 hrs by LC-MS/MS analysis; assay type: ADME, organism-based; design: dose 1 mg/kg, route intravenous, time infinity
CYP3A4 = CYP3A4 (Homo sapiens, UniProt P08684); test: Inhibition of human recombinant CYP3A4 at 10 uM by fluorescence analysis relative to control; assay type: ADME
[2] = Clearance in BALB/c mouse plasma at 1 mg/kg, iv up to 24 hrs by LC-MS/MS analysis; assay type: ADME, organism-based
[3] = Terminal half life in BALB/c mouse plasma at 1 mg/kg, iv by LC-MS/MS analysis; assay type: ADME, organism-based; conditions: read-out: beta t1/2 (converted)
Mus musculus = test: Tlast in BALB/c mouse at 1 mg/kg, iv up to 24 hrs by LC-MS/MS analysis; assay type: ADME, organism-based; conditions: in vivo
[4] = Thermodynamic aqueous solubility of the compound in simulated intestinal fluid at pH 6.8 after overnight incubation; assay type: physicochemical; conditions: read-out: Therm_solubility
[5] = Thermodynamic aqueous solubility of the compound in phosphate buffered saline at pH 7.4 after overnight incubation; assay type: physicochemical; conditions: read-out: Therm_solubility
[6] = Cytotoxicity against human LS180 cells assessed as cell viability at 30 uM after 24 hrs by MTT assay relative to control; assay type: cell-based; conditions: read-out: Activity
[7] = AUC (0 to t) in BALB/c mouse plasma at 10 mg/kg, po up to 24 hrs by LC-MS/MS analysis; assay type: ADME, organism-based; design: dose 10 mg/kg, time < 24 hr, route oral
CYP2C19 = CYP2C19 (Homo sapiens, UniProt P33261); test: Inhibition of human recombinant CYP2C19 at 10 uM by fluorescence analysis relative to control; assay type: ADME
[8] = biological target: T1, Nuclear receptor subfamily 1 group I member 2 (Homo sapiens, UniProt O75469); test: Activation of PXR in human LS180 cells assessed as P-gp induction by measuring intracellular accumulation of rhodamine 123 preincubated for 48 hrs followed by rhodamine 123 addition after 40 mins and measured after 90 mins by fluorescence assay; assay type: cell-based
T1 sequence (O75469 whole entry): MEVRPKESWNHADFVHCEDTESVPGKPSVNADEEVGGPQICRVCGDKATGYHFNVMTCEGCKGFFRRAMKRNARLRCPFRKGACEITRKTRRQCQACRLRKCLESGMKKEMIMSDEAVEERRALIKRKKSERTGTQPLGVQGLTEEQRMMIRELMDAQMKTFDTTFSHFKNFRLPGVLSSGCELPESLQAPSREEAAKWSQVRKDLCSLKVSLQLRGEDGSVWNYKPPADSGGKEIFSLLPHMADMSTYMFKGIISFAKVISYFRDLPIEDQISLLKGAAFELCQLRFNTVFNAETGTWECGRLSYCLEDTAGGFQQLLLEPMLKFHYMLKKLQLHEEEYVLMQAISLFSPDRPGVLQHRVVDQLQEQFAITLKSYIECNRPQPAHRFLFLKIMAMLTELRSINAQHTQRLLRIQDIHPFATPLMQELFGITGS

[9] = Efflux ratio of permeability in human Caco2 cells after 90 mins by LC-MS/MS analysis; assay type: ADME, cell-based; conditions: Caco-2
[10] = Thermodynamic aqueous solubility of the compound in simulated gastric fluid at pH 1.2 after overnight incubation; assay type: physicochemical; conditions: read-out: Therm_solubility
LS180 = test: Cytotoxicity against human LS180 cells assessed as reduction in cell viability after 24 hrs by MTT assay; assay type: cell-based; conditions: LS180, 24 h
CYP2D6 = CYP2D6 (Homo sapiens, UniProt P10635); test: Inhibition of human recombinant CYP2D6 at 10 uM by fluorescence analysis relative to control; assay type: ADME
[11] = AUC (0 to infinity) in BALB/c mouse plasma at 10 mg/kg, po up to 24 hrs by LC-MS/MS analysis; assay type: ADME, organism-based; design: dose 10 mg/kg, time infinity, route oral
[12] = Terminal half life in BALB/c mouse plasma at 10 mg/kg, po by LC-MS/MS analysis; assay type: ADME, organism-based; conditions: read-out: beta t1/2 (converted)
[13] = Cmax in BALB/c mouse plasma at 1 mg/kg, iv up to 24 hrs by LC-MS/MS analysis; assay type: ADME, organism-based; design: dose 1 mg/kg, route intravenous
[14] = Initial plasma concentration in BALB/c mouse at 1 mg/kg, iv up to 24 hrs by LC-MS/MS analysis; assay type: ADME, organism-based
[15] = Oral bioavailability in BALB/c mouse plasma at 10 mg/kg up to 24 hrs by LC-MS/MS analysis; assay type: ADME, organism-based
[16] = Cmax in BALB/c mouse plasma at 10 mg/kg, po up to 24 hrs by LC-MS/MS analysis; assay type: ADME, organism-based; design: dose 10 mg/kg, route oral
[17] = Volume of distribution at steady state in BALB/c mouse at 1 mg/kg, iv up to 24 hrs by LC-MS/MS analysis; assay type: ADME, organism-based; conditions: in vivo, read-out: Vdss
[18] = biological target: T2, P-gp (expression induced through PXR) (Homo sapiens, UniProt O75469); test: Activation of PXR in human LS180 cells assessed as induction of P-gp expression at 5 uM by Western blot method relative to control; assay type: cell-based; conditions: read-out: FC
T2 sequence (O75469 whole entry): T1 sequence (O75469 whole entry)

[19] = AUC (0 to t) in BALB/c mouse plasma at 1 mg/kg, iv up to 24 hrs by LC-MS/MS analysis; assay type: ADME, organism-based; design: dose 1 mg/kg, time < 24 hr, route intravenous
[20] = biological target: T1, Nuclear receptor subfamily 1 group I member 2; test: Activation of PXR in human LS180 cells assessed as P-gp induction by measuring intracellular accumulation of rhodamine 123 per ug of total protein at 5 uM preincubated for 48 hrs followed by rhodamine 123 addition after 40 mins and measured after 90 mins by fluorescence assay relative to control; assay type: cell-based; conditions: 1.5 h
[21] = Tmax in BALB/c mouse plasma at 10 mg/kg, po up to 24 hrs by LC-MS/MS analysis; assay type: ADME, organism-based
[22] = Thermodynamic aqueous solubility of the compound in water after overnight incubation; assay type: physicochemical; conditions: read-out: Therm_solubility
[23] = Volume of distribution in BALB/c mouse at 1 mg/kg, iv up to 24 hrs by LC-MS/MS analysis; assay type: ADME, organism-based; conditions: in vivo

CYP2C19, sequence (P33261 whole entry): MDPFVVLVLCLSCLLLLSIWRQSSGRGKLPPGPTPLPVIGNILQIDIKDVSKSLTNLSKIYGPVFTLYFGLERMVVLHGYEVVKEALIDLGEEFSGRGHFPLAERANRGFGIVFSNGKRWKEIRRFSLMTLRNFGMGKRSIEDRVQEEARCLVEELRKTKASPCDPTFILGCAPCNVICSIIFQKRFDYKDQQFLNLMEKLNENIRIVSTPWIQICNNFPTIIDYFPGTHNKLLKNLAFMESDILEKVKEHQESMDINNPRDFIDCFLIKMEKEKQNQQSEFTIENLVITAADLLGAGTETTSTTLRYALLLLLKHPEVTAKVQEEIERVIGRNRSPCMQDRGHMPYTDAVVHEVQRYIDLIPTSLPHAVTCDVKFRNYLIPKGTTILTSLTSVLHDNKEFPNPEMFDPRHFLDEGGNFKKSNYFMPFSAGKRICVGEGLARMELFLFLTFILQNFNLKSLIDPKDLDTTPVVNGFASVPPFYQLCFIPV
CYP2C9, sequence (P11712 whole entry): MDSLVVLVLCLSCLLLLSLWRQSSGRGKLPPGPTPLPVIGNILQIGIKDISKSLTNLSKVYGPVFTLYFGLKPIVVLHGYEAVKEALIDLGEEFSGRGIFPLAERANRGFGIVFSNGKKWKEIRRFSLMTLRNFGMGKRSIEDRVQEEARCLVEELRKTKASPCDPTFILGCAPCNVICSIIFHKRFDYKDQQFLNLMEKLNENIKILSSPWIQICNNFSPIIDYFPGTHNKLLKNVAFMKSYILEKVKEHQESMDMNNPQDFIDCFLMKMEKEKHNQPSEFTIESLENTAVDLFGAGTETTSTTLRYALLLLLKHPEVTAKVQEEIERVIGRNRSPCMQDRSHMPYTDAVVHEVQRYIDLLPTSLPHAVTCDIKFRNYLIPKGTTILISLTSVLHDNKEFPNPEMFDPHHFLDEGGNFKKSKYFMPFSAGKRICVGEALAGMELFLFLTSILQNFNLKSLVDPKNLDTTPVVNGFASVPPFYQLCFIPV
CYP3A4, sequence (P08684 whole entry): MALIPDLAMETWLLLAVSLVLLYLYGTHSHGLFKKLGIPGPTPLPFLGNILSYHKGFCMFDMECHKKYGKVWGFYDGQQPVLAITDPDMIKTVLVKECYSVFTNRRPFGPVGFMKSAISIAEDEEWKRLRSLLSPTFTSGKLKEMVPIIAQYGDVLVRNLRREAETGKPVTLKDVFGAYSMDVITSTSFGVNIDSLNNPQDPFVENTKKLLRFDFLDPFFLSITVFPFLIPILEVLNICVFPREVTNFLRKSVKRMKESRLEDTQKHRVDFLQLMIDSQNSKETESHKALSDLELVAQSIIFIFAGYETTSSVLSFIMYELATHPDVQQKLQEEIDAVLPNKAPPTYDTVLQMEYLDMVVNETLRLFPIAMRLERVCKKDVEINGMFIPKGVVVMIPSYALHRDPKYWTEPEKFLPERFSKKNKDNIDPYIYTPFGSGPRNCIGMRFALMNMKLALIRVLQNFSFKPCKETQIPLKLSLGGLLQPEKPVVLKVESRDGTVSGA
CYP2D6, sequence (P10635 whole entry): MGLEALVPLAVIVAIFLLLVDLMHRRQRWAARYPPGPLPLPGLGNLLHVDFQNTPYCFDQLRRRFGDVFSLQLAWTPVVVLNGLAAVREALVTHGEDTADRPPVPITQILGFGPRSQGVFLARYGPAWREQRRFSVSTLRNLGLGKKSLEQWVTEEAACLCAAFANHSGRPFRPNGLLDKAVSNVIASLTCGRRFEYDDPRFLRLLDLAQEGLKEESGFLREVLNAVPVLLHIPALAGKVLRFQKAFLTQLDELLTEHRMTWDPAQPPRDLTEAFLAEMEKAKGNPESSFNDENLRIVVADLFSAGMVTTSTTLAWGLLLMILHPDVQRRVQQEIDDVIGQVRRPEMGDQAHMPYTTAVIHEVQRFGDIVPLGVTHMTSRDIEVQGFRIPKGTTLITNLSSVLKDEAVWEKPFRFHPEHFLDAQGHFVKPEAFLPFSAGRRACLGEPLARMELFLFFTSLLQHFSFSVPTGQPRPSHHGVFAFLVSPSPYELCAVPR

With CCOP(=O)(OCC)C(=Cc1ccccc1)P(=O)(OCC)OCC the inhibition at 10 µM (CYP2C9) was 0%, the AUC(0-inf) [1] was 549 ng·h/mL and the inhibition at 10 µM (CYP3A4) was 19%. The clearance [2] was 30.4 mL/min/kg, the half-life [3] was 41.4 min and the Tlast (Mus musculus) was 4 h. For the same compound, the solubility thermodynamic [4] was 40 µg/mL (≈ 0.106 mM), the solubility thermodynamic [5] was > 1500 µg/mL and the viability at 24 h, 30 µM [6] was 100%. The AUC(0-t) at 24 h [7] was 1970 ng·h/mL, the inhibition at 10 µM (CYP2C19) was 0% and the EC50 [8] was 271 nM. For the same compound, the efflux ratio at 1.5 h [9] was 0.9, the solubility thermodynamic [10] was > 1500 µg/mL and the IC50 (LS180) was > 30000 nM. The inhibition at 10 µM (CYP2D6) was 20%, the AUC(0-inf) [11] was 2070 ng·h/mL and the half-life [12] was 209 min. For the same compound, the Cmax [13] was 811 ng/mL, the C0 at 24 h [14] was 1150 ng/mL and the bioavailability [15] was 37.6%. It also gave a Cmax [16] of 870 ng/mL, a Vd [17] of 1.1 L/kg and a fold induction at 5 µM [18] of 7.2. The AUC(0-t) at 24 h [19] was 543 ng·h/mL, the Activity [20] was 58.09% and the Tmax [21] was 30 min. For the same compound, the solubility thermodynamic [22] was > 1500 µg/mL and the Vd [23] was 1.81 L/kg.
